These are literature values, as cited in patent US20100047365A1, “WHEAT-GERM OIL CONCENTRATE, A METHOD FOR THE PRODUCTION THEREOF, A METHOD FOR PRODUCING WHEAT-GERM OIL, AND A MEDICINAL AND PROPHYLACTIC COMPOSITION BASED THEREON FOR RESTORATION OF DISORDERS IN SEXUAL FUNCTIONS” (OTKRYTOE AKTSIONERNOE, priority 2006, published 2010).

The conditions of this series: relative ranking of tocopherol forms.

Take `Cc1c(C)c2c(c(C)c1O)CC[C@@](C)(CCC[C@H](C)CCC[C@H](C)CCCC(C)C)O2` [α-tocopherol]: the antioxidant activity is on record as 0.3. With `Cc1cc(O)c(C)c2c1O[C@](C)(CCC[C@H](C)CCC[C@H](C)CCCC(C)C)CC2` [β-tocopherol], the antioxidant activity is listed as 0.45. For `Cc1cc(O)cc2c1O[C@](C)(CCC[C@H](C)CCC[C@H](C)CCCC(C)C)CC2` [δ-tocopherol], the antioxidant activity was 1.0.

For the compound tocopherol, the antioxidant activity is 0.6.
